One test concerns the target T1, SGLT2 (Homo sapiens, UniProt P31639).
T1 construct: expressed in transfected cells
T1 sequence (P31639 1-672): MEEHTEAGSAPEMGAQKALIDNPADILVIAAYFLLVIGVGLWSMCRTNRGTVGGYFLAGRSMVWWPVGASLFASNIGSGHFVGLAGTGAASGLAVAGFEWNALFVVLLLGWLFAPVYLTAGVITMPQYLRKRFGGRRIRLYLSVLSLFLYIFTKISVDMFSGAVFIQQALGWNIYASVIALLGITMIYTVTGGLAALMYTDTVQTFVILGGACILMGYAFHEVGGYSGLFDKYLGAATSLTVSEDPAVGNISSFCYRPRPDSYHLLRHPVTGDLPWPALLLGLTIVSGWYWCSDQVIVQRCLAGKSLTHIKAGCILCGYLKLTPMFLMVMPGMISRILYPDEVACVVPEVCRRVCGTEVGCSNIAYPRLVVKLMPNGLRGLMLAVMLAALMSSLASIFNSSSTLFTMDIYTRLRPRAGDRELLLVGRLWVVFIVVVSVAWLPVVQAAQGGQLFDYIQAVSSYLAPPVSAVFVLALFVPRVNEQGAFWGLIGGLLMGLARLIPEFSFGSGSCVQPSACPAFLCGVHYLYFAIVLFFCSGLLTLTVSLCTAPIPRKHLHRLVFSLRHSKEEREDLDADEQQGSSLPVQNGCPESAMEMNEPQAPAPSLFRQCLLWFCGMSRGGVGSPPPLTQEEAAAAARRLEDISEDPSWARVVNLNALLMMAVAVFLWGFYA
As to the kind of experiment: SGLT2 activity measurement: 14C-AMG uptake in BHK cells transfected with SGLT2. It counts as cell-based. The note with it: AMG 2 mM, 37° C., 90 min. The gist of the method: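 BHK21 cells stably expressing human SGLT2 took up 14C-AMG (added as 2 mM solution) ± compound for 90 min at 37 °C in Na+-containing HEPES/Tris buffer, pH 7.4. Uptake was measured by scintillation counting after lysis. Non-specific uptake was defined in sodium-free sucrose buffer.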

The target in the next test is T2, SGLT1 (Homo sapiens, UniProt P13866).
T2 construct: expressed in transfected cells
T2 sequence (P13866 1-664): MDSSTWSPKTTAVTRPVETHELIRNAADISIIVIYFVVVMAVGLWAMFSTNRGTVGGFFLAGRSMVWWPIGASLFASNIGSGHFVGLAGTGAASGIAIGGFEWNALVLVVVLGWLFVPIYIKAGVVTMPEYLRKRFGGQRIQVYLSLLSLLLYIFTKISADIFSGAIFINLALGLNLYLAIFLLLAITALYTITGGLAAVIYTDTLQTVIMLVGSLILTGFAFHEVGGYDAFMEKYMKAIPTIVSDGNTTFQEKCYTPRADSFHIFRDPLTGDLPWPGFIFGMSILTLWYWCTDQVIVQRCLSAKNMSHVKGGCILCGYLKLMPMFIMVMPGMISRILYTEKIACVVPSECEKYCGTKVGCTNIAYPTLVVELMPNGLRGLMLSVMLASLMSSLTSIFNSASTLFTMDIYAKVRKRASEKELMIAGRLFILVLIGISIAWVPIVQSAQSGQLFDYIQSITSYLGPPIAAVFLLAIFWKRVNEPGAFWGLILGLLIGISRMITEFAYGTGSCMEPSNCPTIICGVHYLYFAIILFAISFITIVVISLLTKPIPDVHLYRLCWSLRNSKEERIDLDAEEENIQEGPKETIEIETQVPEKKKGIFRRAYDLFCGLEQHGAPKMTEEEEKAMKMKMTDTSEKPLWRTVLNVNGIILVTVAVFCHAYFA
As to the kind of experiment: SGLT1 activity measurement: 14C-AMG uptake in BHK cells transfected with SGLT1. Format: cell-based. The note with it: AMG 50 μM, 37° C., 90 min. The gist of the method: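 BHK21 cells stably transfected with human SLC5A1 were incubated with 14C-AMG (added solution at 50 μM) ± compound for 90 min at 37 °C. The buffer was 140 mM NaCl, HEPES/Tris, pH 7.4. Lysed-cell radioactivity was counted by scintillation, and non-specific uptake was measured in sodium-free sucrose buffer.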

pIC50: −log10 of the molar value. Where only a bound is given, the exact number is not on record here.

22 compounds from US8258151B2, “3-aminoimidazo [1,2-A] pyridine derivatives as SGLT inhibitors” (Merck Patent GmbH, priority 2006, dated 2012) can be followed below.

As a reminder, the pIC50 is −log10 of the IC50, conventionally taken in molar units.

On to `CCc1cc(OC)cc(OCC(N)=O)c1-c1nc2c(N)cccn2c1Nc1c(C)cccc1C` [Compound A192, 2-[2-(Aminocarbonylmethoxy)-4-methoxy-6-ethylphenyl]-3-(2,6-dimethylphenylamino)-8-aminoimidazo[1,2-a]pyridine], for which the figures for the pIC50 on SGLT2 and on SGLT1 were 6.00 to 8.00 and less than 5.00, respectively.

As for `Cc1cc(C)c(-c2nc3ccc(F)cn3c2Nc2c(C)cccc2C)c(OCC(N)=O)c1` [Compound A169, 2-[2-(Aminocarbonylmethoxy)-4,6-dimethyl-phenyl]-3-(2,6-dimethylphenylamino)-6-fluoro-imidazo[1,2-a]pyridine], the pIC50 against SGLT2 is 6.00 to 8.00; against SGLT1 it was 5.00 to 6.00.

For the compound `Cc1cccc(C)c1Nc1c(-c2c(OCC(N)=O)ccc3ccccc23)nc2ccccn12` [Compound A181, 2-{1-[3-(2,6-Dimethylphenylamino)imidazo-[1,2-a]pyridin-2-yl]naphthalen-2-yloxy}acetamide], the pIC50 on SGLT2 is 6.00 to 8.00; on SGLT1, 5.00 to 6.00.

As for `COc1cccc(OCC(N)=O)c1-c1nc2ccc(F)cn2c1Nc1c(C)cccc1C` [Compound A1, 2-[2-(aminocarbonylmethoxy)-6-methoxyphenyl]-3-(2,6-dimethylphenylamino)-6-fluoroimidazo[1,2-a]pyridine], the pIC50 against SGLT2 was 6.00 to 8.00; on SGLT1 it was 5.00 to 6.00.

Regarding `Cc1cccc(C)c1Nc1c(-c2c(C)cc(O)cc2OCC(N)=O)nc2ccccn12` [Compound A171, 2-[2-(Aminocarbonylmethoxy)-4-hydroxy-6-methylphenyl]-3-(2,6-dimethylphenylamino)-imidazo[1,2-a]pyridine], the negative-log IC50 (pIC50) is 6.00 to 8.00 on SGLT2 and less than 5.00 against SGLT1.

`CCc1cc(OC)cc(OCC(N)=O)c1-c1nc2ccccn2c1Nc1c(C)cccc1C` [Compound A202, 2-[2-(Aminocarbonylmethoxy)-4-methoxy-6-ethylphenyl]-3-(2,6-dimethylphenylamino)-imidazo[1,2-a]pyridine]: the pIC50 on SGLT2 was 6.00 to 8.00; against SGLT1, 5.00 to 6.00.

Regarding `COC(=O)Cc1ccc(OCC(N)=O)c(-c2nc3ccccn3c2Nc2c(C)cccc2C)c1` [Compound A183, 2-[2-(Aminocarbonylmethoxy)-5-(methoxycarbonylmethyl)phenyl]-3-(2,6-dimethylphenylamino)imidazo[1,2-a]pyridine], the pIC50 against SGLT2 was 5.00 to 6.00; on SGLT1, less than 5.00.

As to `COc1cc(C)c(-c2nc3ccc(F)cn3c2Nc2c(C)cc(Cl)cc2C)c(OCC(N)=O)c1` [Compound A222, 2-[2-(Aminocarbonylmethoxy)-4-methoxy-6-methylphenyl]-3-(4-chloro-2,6-dimethylphenyl-amino)-6-fluoroimidazo[1,2-a]pyridine], the pIC50 against SGLT2 was 6.00 to 8.00; on SGLT1, 5.00 to 6.00.

Regarding `CCc1cc(OCCO)cc(OCC(N)=O)c1-c1nc2ccc(F)cn2c1Nc1c(C)cccc1C` [Compound A195, 2-[2-(Aminocarbonylmethoxy)-4-(2-hydroxy-ethoxy)-6-ethylphenyl]-3-(2,6-dimethylphenyl-amino)-6-fluoroimidazo[1,2-a]pyridine], the figures for the pIC50 at SGLT2 and against SGLT1 were 6.00 to 8.00 and less than 5.00, respectively.

On to `Cc1cccc(C)c1Nc1c(-c2ccccc2OCC(N)=O)nc2ccccn12` [Compound A4, 2-[2-(Aminocarbonylmethoxy)phenyl]-3-(2,6-di-methylphenylamino)imidazo[1,2-a]pyridine], for which the pIC50 against SGLT2 is 6.00 to 8.00; against SGLT1, less than 5.00.

Consider `COc1cc(C)c(-c2nc3c(F)cc(F)cn3c2Nc2c(C)cccc2C)c(OCC(N)=O)c1` [Compound A237, 2-[2-(Aminocarbonylmethoxy)-4-methoxy-6-methylphenyl]-3-(2,6-dimethylphenylamino)-6,8-difluoroimidazo[1,2-a]pyridine], for which the pIC50 was 6.00 to 8.00 at SGLT2 and 5.00 to 6.00 against SGLT1.

Regarding `Cc1cccc(C)c1Nc1c(-c2c(C)cc(OCc3ccccc3)cc2OCC(N)=O)nc2ccccn12` [Compound A173, 2-[2-(Aminocarbonylmethoxy)-4-benzyloxy-6-methylphenyl]-3-(2,6-dimethylphenylamino)-imidazo[1,2-a]pyridine], the pIC50 on SGLT2 and at SGLT1 was less than 5.00 each time.

Turning to `COc1cc(C)c(-c2nc3ccc(F)cn3c2Nc2ccc(F)cc2F)c(OCC(N)=O)c1` [Compound A229, 2-[2-(Aminocarbonylmethoxy)-4-methoxy-6-methylphenyl]-3-(2,4-difluorophenylamino)-6-fluoroimidazo[1,2-a]pyridine], the pIC50 against SGLT2 is 5.00 to 6.00; at SGLT1, less than 5.00.

`COc1cc(C)c(-c2nc3ccc(F)cn3c2Nc2c(C)cc(Br)c(C)c2Br)c(OCC(N)=O)c1` [Compound A249, 2-[2-(Aminocarbonylmethoxy)-4-methoxy-6-methylphenyl]-3-(2,5-dimethyl-4,6-dibromophenylamino)-6-fluoroimidazo[1,2-a]-pyridine]: the pIC50 on SGLT2 and against SGLT1 was 5.00 to 6.00 throughout.

Take `CCc1cc(OC)cc(OCC(N)=O)c1-c1nc2ccc(F)cn2c1Nc1c(F)cccc1F` [Compound A220, 2-[2-(Aminocarbonylmethoxy)-4-methoxy-6-ethylphenyl]-3-(2,6-difluorophenylamino)-6-fluoroimidazo[1,2-a]pyridine]: the figures for the pIC50 against SGLT2 and against SGLT1 were 6.00 to 8.00 and 5.00 to 6.00, respectively.

For `Cc1cccc(C)c1Nc1c(-c2c(C)cc(OC3COC(=O)O3)cc2OCC(N)=O)nc2ccc(F)cn12` (centres unmarked) [Compound A190, 2-[2-(Aminocarbonylmethoxy)-4-(2-oxo-1,3-dioxolan-4-yloxy)-6-methylphenyl]-3-(2,6-dimethylphenylamino)-6-fluoroimidazo[1,2-a]-pyridine], the pIC50 against SGLT2 was 6.00 to 8.00; at SGLT1 it was less than 5.00.

For `CCc1cc(OCC(O)CO)cc(OCC(N)=O)c1-c1nc2ccc(F)cn2c1Nc1c(C)cccc1C` (centres unmarked) [Compound A216, 2-[2-(Aminocarbonylmethoxy)-4-(2,3-dihydroxy-propoxy)-6-ethylphenyl]-3-(2,6-dimethylphenyl-amino)-6-fluoroimidazo[1,2-a]pyridine], the values for the pIC50 on SGLT2 and against SGLT1 were 6.00 to 8.00 and less than 5.00, respectively.

As for `COc1cc(C)c(-c2nc3ccc(F)cn3c2Nc2c(F)cccc2Br)c(OCC(N)=O)c1` [Compound A243, 2-[2-(Aminocarbonylmethoxy)-4-methoxy-6-methylphenyl]-3-(2-fluoro-6-bromophenylamino)-6-fluoroimidazo[1,2-a]pyridine], the pIC50 against SGLT2 was 6.00 to 8.00; against SGLT1, 5.00 to 6.00.

Regarding `Cc1cccc(C)c1Nc1c(-c2c(C)cc(OS(=O)(=O)N(C)C)cc2OCC(N)=O)nc2ccc(F)cn12` [Compound A213], the pIC50 on SGLT2 was 6.00 to 8.00; at SGLT1 it was less than 5.00.

In the case of `Cc1ccc(-c2nc3ccccn3c2Nc2c(C)cccc2C)c(OCC(N)=O)c1` [Compound A17, 2-[2-(Aminocarbonylmethoxy)-4-methylphenyl]-3-(2,6-dimethylphenylamino)-imidazo[1,2-a]-pyridine], the pIC50 against SGLT2 is 6.00 to 8.00; against SGLT1, less than 5.00.

As to `COc1cc(C)c(-c2nc3ccc(F)cn3c2Nc2c(C)cccc2[N+](=O)[O-])c(OCC(N)=O)c1` [Compound A232, 2-[2-(Aminocarbonylmethoxy)-4-methoxy-6-methylphenyl]-3-(2-methyl-6-nitrophenylamino)-6-fluoroimidazo[1,2-a]pyridine], the pIC50 is 6.00 to 8.00 at SGLT2 and 5.00 to 6.00 against SGLT1.

On to `Cc1cccc(C)c1Nc1c(-c2c(C)cc(OCC(N)=O)cc2OCC(N)=O)nc2ccc(F)cn12` [Compound A178, 2-[2-(Aminocarbonylmethoxy)-4-(amino-carbonylmethoxy)-6-methylphenyl]-3-(2,6-dimethylphenylamino)-6-fluoroimidazo[1,2-a]-pyridine], for which the pIC50 against SGLT2 was 6.00 to 8.00; against SGLT1, less than 5.00.
